# Values joined by “and” are separate entries in the source; they are usually repeats but may differ in a detail not shown here. Equal entries are not always repeated.
# What was measured:
# Assay type in all cases: cell-based
# [1] = test system: Jurkat cells; test: Cell viability assay (CellTiter-Glo), Jurkat
# Protocol: (§1) The cell lines Jurkat (TIB-152), El4 (TIB-39), Daudi (ccl-213), RS4:11 (crl-1873), A549 (ccl-185), HepG2 (hb-8065) and PANC-1 (crl-1469) were purchased from ATCC (American Type Culture Collection), and MGC-803 (C6582) was purchased from Beyotime (https://www.beyotime.com/product/C6582.htm). […] Daudi and RS4:11 cells were cultured in RPMI-1640 medium (HyClone, SH30809.01) and 10% FBS (Gibco, 10099-141), whereas HepG2, MGC-803 and PANC-1 cells were cultured in MDEM (HyClone, SH30243.01). Cells were maintained at 37 °C under a humidified, 5% (v/v) CO2-containing atmosphere.
# (§2) Cell viability was measured using CellTiter-Glo® 2.0 Reagent (Promega, G9242). […] After different inhibitors were added into serum-free medium and cultured for 4 h (RS4:11 for 6 h), FBS were supplemented to 10% and then incubated totally for 24 h or 48 h. Finally, the IC50 values were calculated based on measurements using a microplate reader (Thermo, Varioskan LUX). Statistical analysis was performed using software GraphPad Prism 7.0.
# [2] = test system: Daudi cells; test: Cell viability assay (CellTiter-Glo), Daudi; details: Daudi
# Protocol: as §1, §2
# [3] = test system: RS4:11 cells; test: Cell viability assay (CellTiter-Glo), RS4:11; details: single wells; for raw luminescence reading / inhibition rate: RS4:11
# Protocol: as §1, §2
smiles,measurement,setting,value
CC1(C)CCC(c2ccc(Cl)cc2)=C(CN2CCN(c3ccc(C(=O)NS(=O)(=O)c4ccc(N[C@H](CCN5CCOCC5)CSc5ccccc5)c(S(=O)(=O)C(F)(F)F)c4)cc3)CC2)C1 [ABT263],"inhibition relative to 0 uM control, replicates",[1]; 0.375 uM,36% and 32% (2×) and 29% and 31%
same,"raw viability signal, replicates",[1]; 0.375 uM,1239000 and 1266000 and 1356000 and 1351000 and 1403000 and 1379000
same,"inhibition relative to 0 uM control, replicates",[1]; 0.75 uM,33% and 36% and 41%
same,"raw viability signal, replicates",[1]; 0.75 uM,1132000 and 1330000 and 1241000 and 1225000 and 1265000 and 1179000
same,"inhibition relative to 0 uM control, replicates",[1]; 1.5 uM,44% and 41% and 40% and 37% and 34%
same,"raw viability signal, replicates",[1]; 1.5 uM,1078000 and 1124000 and 1172000 and 1189000 and 1263000 and 1304000
same,"inhibition relative to 0 uM control, replicates",[1]; 3 uM,44% and 39% and 40%
same,"raw viability signal, replicates",[1]; 3 uM,1152000 and 1105000 and 1149000 and 1214000 and 1192000 and 1143000
same,"inhibition relative to 0 uM control, replicates",[1]; 6 uM,47% and 44% and 41%
same,"raw viability signal, replicates",[1]; 6 uM,1071000 and 1059000 and 1122000 and 1132000 and 1181000 and 1149000
same,"inhibition relative to 0 uM control, replicates",[1]; 12 uM,60% and 56% and 54% and 53%
same,"raw viability signal, replicates",[1]; 12 uM,855500 and 799300 and 877600 and 917700 and 934900 and 865100
same,inhibition at 0.375 µM,"[1]; Homo sapiens, 0.375 uM, read-out: inhibition relative to 0 uM control, replicates",38%
same,inhibition at 0.75 µM,"[1]; Homo sapiens, 0.75 uM, read-out: inhibition relative to 0 uM control, replicates",43%
same,inhibition at 1.5 µM,"[1]; Homo sapiens, 1.5 uM, read-out: inhibition relative to 0 uM control, replicates",46%
same,inhibition at 3 µM,"[1]; Homo sapiens, 3 uM, read-out: inhibition relative to 0 uM control, replicates",42%
same,inhibition at 6 µM,"[1]; Homo sapiens, 6 uM, read-out: inhibition relative to 0 uM control, replicates",46%
same,inhibition at 12 µM,"[1]; Homo sapiens, 12 uM, read-out: inhibition relative to 0 uM control, replicates",57%
same,"inhibition relative to 0 uM control, replicates",[2]; 0.78125 uM,-13% and 6.58% and 11% and 14% and -14% and 9%
same,"raw viability signal, replicates",[2]; 0.78125 uM,1671 and 1386 and 1318 and 1281 and 1698 and 1345
same,"inhibition relative to 0 uM control, replicates",[2]; 1.5625 uM,12% and 28% and 13% and 5% and 2.67% and -0.427%
same,"raw viability signal, replicates",[2]; 1.5625 uM,1303 and 1062 and 1294 and 1413 and 1444 and 1490
same,"inhibition relative to 0 uM control, replicates",[2]; 3.125 uM,25% and 4% and 5% and 17% and 29% and 48%
same,"raw viability signal, replicates",[2]; 3.125 uM,1117 and 1426 and 1406 and 1238 and 1059 and 765.3
same,"inhibition relative to 0 uM control, replicates",[2]; 6.25 uM,51% and 31% and 24% and 23% and 20% and 40%
same,"raw viability signal, replicates",[2]; 6.25 uM,729.7 and 1018 and 1129 and 1147 and 1185 and 883.7
same,"inhibition relative to 0 uM control, replicates",[2]; 12.5 uM,38% and 61% and 46% and 56% and 44% and 48%
same,"raw viability signal, replicates",[2]; 12.5 uM,920.2 and 574.4 and 802.0 and 653.5 and 827.6 and 767.5
same,"inhibition relative to 0 uM control, replicates",[2]; 25 uM,71% and 70% and 63% and 61% (2×) and 82%
same,"raw viability signal, replicates",[2]; 25 uM,436.2 and 441.9 and 545.0 and 582.0 and 581.4 and 260.8
same,inhibition at 0.000488281 µM,"[3]; Homo sapiens, RS4-11, RS4:11, 0.488281 nM, read-out: inhibition rate",67%
same,inhibition at 0.000976562 µM,"[3]; Homo sapiens, RS4-11, RS4:11, 0.976562 nM, read-out: inhibition rate",81%
same,inhibition at 0.00195312 µM,"[3]; Homo sapiens, RS4-11, RS4:11, 1.95312 nM, read-out: inhibition rate",97%
same,inhibition at 0.00390625 µM,"[3]; Homo sapiens, RS4-11, RS4:11, 3.90625 nM, read-out: inhibition rate",99%
same,inhibition at 0.0078125 µM,"[3]; Homo sapiens, RS4-11, RS4:11, 7.8125 nM, read-out: inhibition rate",100%
same,inhibition at 0.015625 µM,"[3]; Homo sapiens, RS4-11, RS4:11, 15.625 nM, read-out: inhibition rate",100%
same,inhibition at 0.03125 µM,"[3]; Homo sapiens, RS4-11, RS4:11, 31.25 nM, read-out: inhibition rate",100%
same,inhibition at 0.0625 µM,"[3]; Homo sapiens, RS4-11, RS4:11, 62.5 nM, read-out: inhibition rate",100%
same,inhibition at 0.125 µM,"[3]; Homo sapiens, RS4-11, RS4:11, 125 nM, read-out: inhibition rate",100%
same,inhibition at 0.25 µM,"[3]; Homo sapiens, RS4-11, RS4:11, 250 nM, read-out: inhibition rate",100%
same,inhibition at 0.5 µM,"[3]; Homo sapiens, RS4-11, RS4:11, 500 nM, read-out: inhibition rate",100%
same,inhibition at 1 µM,"[3]; Homo sapiens, RS4-11, RS4:11, 1000 nM, read-out: inhibition rate",100%
same,raw luminescence reading,[3]; 0.244141 nM,319400 and 358600 and 385500 and 388700 and 346000 and 423800
same,raw luminescence reading,[3]; 0.488281 nM,145900 and 162000 and 168900 and 156800 and 153400 and 152700
same,inhibition rate,"[3]; 0.488281 nM, 0.000488281 µM",63% and 62% and 65% and 66%
same,raw luminescence reading,[3]; 0.976562 nM,85360 and 92040 and 97200 and 90740 and 85390 and 85400
same,inhibition rate,"[3]; 0.976562 nM, 0.000976562 µM",79% and 78% and 80%
same,raw luminescence reading,[3]; 1.95312 nM,14920 and 16290 and 16450 and 15190 and 15570 and 13650
same,inhibition rate,"[3]; 1.95312 nM, 0.00195312 µM",96%
same,raw luminescence reading,[3]; 3.90625 nM,2969 and 3143 and 3110 and 2929 and 2545 and 2763
same,raw luminescence reading,[3]; 7.8125 nM,1394 and 1471 and 1609 and 1459 and 1530 and 1294
same,raw luminescence reading,[3]; 15.625 nM,649.5 and 693.0 and 701.2 and 740.3 and 855.6 and 501.0
same,raw luminescence reading,[3]; 31.25 nM,598.7 and 870.6 and 1121 and 921.5 and 938.2 and 1010
same,raw luminescence reading,[3]; 62.5 nM,361.9 and 494.9 and 587.5 and 446.2 and 364.9 and 488.9
same,raw luminescence reading,[3]; 125 nM,503.8 and 401.2 and 517.1 and 644.2 and 454.2 and 588.4
same,raw luminescence reading,[3]; 250 nM,1061 and 1147 and 1486 and 1266 and 1158 and 1293
same,raw luminescence reading,[3]; 500 nM,507.0 and 488.7 and 440.9 and 484.8 and 485.1 and 504.0
same,raw luminescence reading,[3]; 1000 nM,274.1 and 376.6 and 535.0 and 446.7 and 313.0 and 467.2

# Source: paper PMC10874388, “Cyclic peptides discriminate BCL-2 and its clinical mutants from BCL-XL by engaging a single-residue discrepancy” (Nature Communications, 2024)
